Laboratory results as given in patent EP0237239A2, “New compounds” (THE WELLCOME FOUNDATION LIMITED, priority 1986, dated 1987).
Counter-ions that a name gives are not always drawn.

Biological target: T1, angiotension converting enzyme (Cavia porcellus, UniProt H0UWL7)
T1 construct: from tissue; host or cells: guinea pig ileum
T1 sequence (H0UWL7 33-1302): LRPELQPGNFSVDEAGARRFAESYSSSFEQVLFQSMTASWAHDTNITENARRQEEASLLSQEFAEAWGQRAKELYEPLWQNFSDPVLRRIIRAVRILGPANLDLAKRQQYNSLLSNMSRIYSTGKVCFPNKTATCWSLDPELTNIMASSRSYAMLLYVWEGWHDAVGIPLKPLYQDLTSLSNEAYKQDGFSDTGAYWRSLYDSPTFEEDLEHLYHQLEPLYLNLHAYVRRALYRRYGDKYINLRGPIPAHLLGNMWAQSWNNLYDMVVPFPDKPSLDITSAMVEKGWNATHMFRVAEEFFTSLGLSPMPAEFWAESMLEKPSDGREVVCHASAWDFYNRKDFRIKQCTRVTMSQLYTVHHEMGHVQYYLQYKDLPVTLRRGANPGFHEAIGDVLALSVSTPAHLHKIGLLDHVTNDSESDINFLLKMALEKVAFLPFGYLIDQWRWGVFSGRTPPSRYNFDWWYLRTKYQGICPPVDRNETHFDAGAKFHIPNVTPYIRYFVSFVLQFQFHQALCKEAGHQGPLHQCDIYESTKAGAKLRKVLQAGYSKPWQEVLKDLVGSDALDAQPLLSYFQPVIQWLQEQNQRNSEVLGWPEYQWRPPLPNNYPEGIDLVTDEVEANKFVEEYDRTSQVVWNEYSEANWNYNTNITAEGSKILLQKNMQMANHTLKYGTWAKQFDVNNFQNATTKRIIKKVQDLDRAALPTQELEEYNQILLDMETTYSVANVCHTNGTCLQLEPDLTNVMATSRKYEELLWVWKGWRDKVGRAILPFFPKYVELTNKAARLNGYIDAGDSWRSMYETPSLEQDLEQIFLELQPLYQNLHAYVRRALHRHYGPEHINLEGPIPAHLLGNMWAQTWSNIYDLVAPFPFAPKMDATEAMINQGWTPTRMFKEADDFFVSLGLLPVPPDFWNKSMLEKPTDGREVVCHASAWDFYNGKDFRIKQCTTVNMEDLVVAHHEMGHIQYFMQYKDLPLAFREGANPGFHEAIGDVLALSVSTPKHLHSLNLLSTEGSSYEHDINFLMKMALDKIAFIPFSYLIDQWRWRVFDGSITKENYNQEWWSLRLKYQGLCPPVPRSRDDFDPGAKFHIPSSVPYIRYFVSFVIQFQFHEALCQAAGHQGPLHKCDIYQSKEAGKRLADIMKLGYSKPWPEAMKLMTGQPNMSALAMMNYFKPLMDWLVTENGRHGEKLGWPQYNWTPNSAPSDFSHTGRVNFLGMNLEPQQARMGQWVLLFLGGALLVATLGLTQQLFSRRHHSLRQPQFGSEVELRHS
Assay: angiotensin converting enzyme inhibition in guinea pig ileum (inhibition of contractile responses to Angiotensin I)
Format: cell-based
Settings: dose-dependent inhibition of contractile responses to Angiotensin I, in vitro, read-out: EC50 (the source's name)
Description: (b) ACE inhibition in vitro
In any assay for angiotension converting enzyme inhibition in guinea pig ileum, dose-dependent inhibition of contractile responses to Angiotensin I gave the following results: […]

SMILES | IC50 [nM]
CC(C)NCC(O)COc1cccc2c(OCC(=O)NCCCC[C@H](NC(C)C(=O)N3CCC[C@H]3C(=O)O)C(=O)O)cccc12 (stereo partly drawn) [Example 2, N-(l(S)-Carboxy-5-(2-[5-(2(S,R)-hydroxy-3-isopropylaminopropoxy)-naphth-1-yloxy]acetamido)pentyl)-(S,R)-alanyl-(S)-proline dihydrochloride acetate hemihydrate] | 13.5
CC(C)NCC(O)COc1cccc2ccc(CNCCCC[C@H](NC(C)C(=O)N3CCC[C@H]3C(=O)O)C(=O)O)cc12 (stereo partly drawn) [Example 5, N-(1(S)-Carboxy-5-[8-(2(S,R)-hydroxy-3-isopropylaminopropoxy)naphth-2-ylmethylamino]pentyl)-(S,R)-alanyl-(S)-proline tristrifluoroacetate] | 9.6
